Results published in the supplement of paper PMC11579375.

Experiments:
Assay in all cases: area under the viability dose-response curve (AUC) (AUC (arbitrary units, max 500 = no viability loss)); higher = less sensitive (higher viability)
Settings in all cases: exposure time: 120 h; concentration range: 0.1 nM - 10 µM, 6 doses
[1] = system: 10F2 (fetal-II hepatoblastoma organoid with high liver markers)
Protocol: (§1)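 Patient-derived hepatoblastoma tumor organoids (about 50 organoids per well, 384-well plates, medium with 5% BME) were treated with the PMC pediatric cancer drug library. Each drug was tested in duplicate at 6 concentrations (0.1 nM to 10 µM, 10-fold steps).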

[2] = system: 135F2 (fetal-II hepatoblastoma organoid with high liver markers)
Protocol: as §1

[3] = system: 13E (embryonal-type hepatoblastoma organoid)
Protocol: as §1

[4] = system: 13F2 (fetal-II hepatoblastoma organoid with high liver markers)
Protocol: as §1

[5] = system: 17E (embryonal-type hepatoblastoma organoid)
Protocol: as §1

[6] = system: 17F1 (fetal-I hepatoblastoma organoid with intermediate liver markers)
Protocol: as §1

[7] = system: 22E (embryonal-type hepatoblastoma organoid)
Protocol: as §1

[8] = system: 27F1 (fetal-I hepatoblastoma organoid with intermediate liver markers)
Protocol: as §1

[9] = system: 3E (embryonal-type hepatoblastoma organoid)
Protocol: as §1

[10] = system: 8F1 (fetal-I hepatoblastoma organoid with intermediate liver markers)
Protocol: as §1

[11] = system: 96F1 (fetal-I hepatoblastoma organoid with intermediate liver markers)
Protocol: as §1

Row | SMILES | area under the viability dose-response curve [1] | area under the viability dose-response curve [2] | area under the viability dose-response curve [3] | area under the viability dose-response curve [4] | area under the viability dose-response curve [5] | area under the viability dose-response curve [6] | area under the viability dose-response curve [7] | area under the viability dose-response curve [8] | area under the viability dose-response curve [9] | area under the viability dose-response curve [10] | area under the viability dose-response curve [11]
1 | CS(=O)(=O)c1ccc(C(=O)Nc2ccc(Cl)c(-c3ccccn3)c2)c(Cl)c1 [Vismodegib] | 443 | 473 | 496 | 490 | > 500 | 489 | 452 | 497 | > 500 | > 500 | 494
2 | C[C@@H]1COCCN1c1cc(C2([S@](C)(=N)=O)CC2)nc(-c2cc[nH]c3nccc2-3)n1 [Ceralasertib] | 475 | 448 | 468 | 450 | 462 | 478 | 462 | 479 | 442 | > 500 | 450
3 | C=CC(=O)N1CCC[C@@H](n2nc(-c3ccc(Oc4ccccc4)cc3)c3c(N)ncnc32)C1 [Ibrutinib] | 386 | 455 | 476 | 358 | 439 | 488 | 443 | 418 | > 500 | 480 | 438
4 | Cc1cn(-c2cc(NC(=O)c3ccc(C)c(Nc4nccc(-c5cccnc5)n4)c3)cc(C(F)(F)F)c2)cn1 [Nilotinib] | > 500 | 476 | 493 | 471 | 456 | 496 | 478 | > 500 | 489 | 486 | 495
5 | COc1cc([C@@H]2c3cc4c(cc3[C@@H](O[C@@H]3O[C@@H]5CO[C@@H](C)O[C@H]5[C@H](O)[C@H]3O)[C@H]3COC(=O)[C@H]23)OCO4)cc(OC)c1O [Etoposide] | 388 | 389 | 380 | 359 | 349 | 438 | 446 | 446 | 378 | 477 | 383
6 | C=CCn1c(=O)c2cnc(Nc3ccc(N4CCN(C)CC4)cc3)nc2n1-c1cccc(C(C)(C)O)n1 [Adavosertib] | 328 | 353 | 404 | 354 | 336 | 383 | 423 | 386 | 335 | 438 | 361
7 | Cc1nc(-c2cn3c(n2)-c2ccc(-c4cnn(C(C)(C)C(N)=O)c4)cc2OCC3)n(C(C)C)n1 [Taselisib] | 361 | 435 | 388 | 351 | 349 | 493 | 415 | 413 | 305 | 475 | 437
8 | CC(C)C[C@H](NC(=O)[C@H](CCc1ccccc1)NC(=O)CN1CCOCC1)C(=O)N[C@@H](Cc1ccccc1)C(=O)N[C@@H](CC(C)C)C(=O)[C@@]1(C)CO1 [Carfilzomib] | 323 | 194 | 362 | 217 | 247 | 269 | 347 | 332 | 242 | 350 | 355
9 | Nc1cc(C(F)(F)F)c(-c2cc(N3CCOCC3)nc(N3CCOCC3)n2)cn1 [Buparlisib] | 385 | 440 | 413 | 413 | 416 | 454 | 425 | 436 | 383 | 447 | 449
10 | CC(=O)O[C@@]12CO[C@@H]1C[C@H](O)[C@@]1(C)C(=O)[C@H](O)C3=C(C)[C@@H](OC(=O)[C@H](O)[C@@H](NC(=O)OC(C)(C)C)c4ccccc4)C[C@@](O)([C@@H](OC(=O)c4ccccc4)[C@H]21)C3(C)C [Docetaxel] | 134 | 195 | 179 | 171 | 175 | 255 | 248 | 267 | 101 | 401 | 203
11 | CC(C)c1c(-c2ccccc2)nc2c(C#N)c[nH]n2c1=O [CPI-455] | 469 | > 500 | > 500 | > 500 | > 500 | 498 | > 500 | > 500 | > 500 | > 500 | > 500
12 | COc1cccc2c1C(=O)c1c(O)c3c(c(O)c1C2=O)C[C@@](O)(C(C)=O)C[C@@H]3O[C@H]1C[C@H](N)[C@H](O)[C@H](C)O1 [Daunorubicin] | 247 | 283 | 301 | 253 | 287 | 301 | 317 | 305 | 273 | 400 | 284
13 | CN1CCN(c2ccc(C(=O)Nc3n[nH]c4ccc(Cc5cc(F)cc(F)c5)cc34)c(NC3CCOCC3)c2)CC1 [Entrectinib] | 399 | 438 | 418 | 418 | 404 | 448 | 429 | 484 | 424 | 460 | 454
14 | CC1(C)CCC2(CC1)N[C@@H](C(=O)N[C@@H]1CC[C@@H](C(N)=O)OC1)[C@H](c1ccnc(Cl)c1F)[C@]21C(=O)Nc2cc(Cl)ccc21 [Milademetan] | 268 | 341 | 370 | 256 | 294 | 376 | 406 | 357 | 313 | 367 | 399
15 | CNc1nc(-c2nc3ccc(N4CCN(C)CC4)cc3n2Cc2ccccc2)cn2c(C)nnc12 | 328 | 309 | 411 | 260 | 433 | 460 | 415 | 479 | 321 | > 500 | 492
16 | C[C@]1(O)C[C@@H](c2nc(-c3ccc4ccc(-c5ccccc5)nc4c3)c3c(N)nccn32)C1 [Linsitinib] | 467 | 487 | 405 | 410 | 384 | 492 | 391 | 476 | 374 | 484 | 454
17 | C[C@H](NC(=O)Cc1cc(F)cc(F)c1)C(=O)N[C@@H]1C(=O)N(C)c2ccccc2-c2ccccc21 | 392 | 472 | 472 | 388 | 430 | 478 | 493 | 441 | 406 | 456 | 497
18 | CN(C)C/C=C/C(=O)Nc1cc2c(Nc3ccc(F)c(Cl)c3)ncnc2cc1O[C@H]1CCOC1 [Afatinib] | 253 | 442 | 472 | 271 | 491 | 408 | 489 | 342 | 456 | 493 | 352
19 | CC1=C(/C=C/C(C)=C/C=C/C(C)=C\C(=O)O)C(C)(C)CCC1 [Isotretinoin] | > 500 | 496 | 468 | > 500 | 495 | > 500 | 472 | > 500 | 440 | > 500 | > 500
20 | COc1cc(Nc2c(C#N)cnc3cc(OCCCN4CCN(C)CC4)c(OC)cc23)c(Cl)cc1Cl [Bosutinib] | 429 | 459 | 447 | 397 | 429 | 469 | 471 | 422 | 435 | 450 | 433
21 | NC1(c2ccc(-c3nc4ccn5c(=O)[nH]nc5c4cc3-c3ccccc3)cc2)CCC1 [MK-2206] | 445 | 462 | 415 | 395 | 377 | 473 | 440 | 459 | 371 | 431 | 427
22 | Cc1ccc2c(Nc3cccc(Cl)c3F)nccc2c1NC(=O)c1csc2c(N)ncnc12 [Belvarafenib] | 334 | 389 | > 500 | 407 | 499 | > 500 | 474 | 484 | 497 | > 500 | > 500
23 | CCCS(=O)(=O)Nc1ccc(F)c(C(=O)c2c[nH]c3ncc(-c4ccc(Cl)cc4)cc23)c1F [Vemurafenib] | 395 | 498 | 475 | 440 | 496 | 499 | 447 | 499 | 490 | 495 | 490
24 | CN(Cc1cnc2nc(N)nc(N)c2n1)c1ccc(C(=O)N[C@@H](CCC(=O)O)C(=O)O)cc1 [Methotrexate] | 429 | 294 | 381 | 274 | 451 | 334 | 452 | 366 | 483 | 382 | 345
25 | CCc1cc2c(cc1N1CCC(N3CCOCC3)CC1)C(C)(C)c1[nH]c3cc(C#N)ccc3c1C2=O [Alectinib] | > 500 | 499 | 498 | 473 | > 500 | 499 | 479 | > 500 | 452 | 496 | > 500
26 | O=C1NC(=O)[C@@H](c2cn3c4c(cccc24)CCC3)[C@@H]1c1c[nH]c2ccccc12 [Tivantinib] | 320 | 367 | 358 | 350 | 345 | 415 | 404 | 375 | 349 | 455 | 377
27 | CC(C)N(C[C@H]1O[C@@H](n2cnc3c(N)ncnc32)[C@H](O)[C@@H]1O)[C@H]1C[C@@H](CCc2nc3cc(C(C)(C)C)ccc3[nH]2)C1 [Pinometostat] | 432 | 489 | 493 | 486 | 453 | 472 | > 500 | 490 | > 500 | 497 | 469
